Measured values reported in US12187758B2 (ROME Therapeutics, Inc., priority 2022, dated 2025).

Experiments:
Format in all cases: cell-based
[1] = Mitochondria toxicity assay with PC3 cells, in-cell ELISA COX-1; details: 5 days treatment
Outline: (§1)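 This in-cell ELISA was run on fixed, permeabilized PC3 cells after 5-day exposure to titrated compound, with cytotoxicity measured on a duplicate plate. Results are reported as categories A (<1.0 μM) to E (>100.0 μM).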

PC3 cells = assay: Mitochondria toxicity assay with PC3 cells, cytotoxicity (Cell Titer Glo); details: Homo sapiens, PC-3, 120 h, 5 days treatment
Outline: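 PC3 cells in F-12K with 10% FBS exposed to a compound dose titration for 5 days at 37° C, 5% CO2. Viability by Cell Titer Glo luminescence after 30 min at room temperature; values binned A (<1.0 μM) to E (>100.0 μM).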

THP1-Dual KO-TREX1 cells = assay: THP1 TREX1 KO inhibition assay (type 1 interferon response); details: Homo sapiens, 144 h, type 1 interferon (QUANTI-LUC), 1 μM 5-aza-2′-deoxycytidine, six days
Outline: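 THP1-Dual KO-TREX1 cells were treated with a dose titration of compound, alone or with 1 μM 5-aza-2′-deoxycytidine, for six days at 37 °C. Type 1 interferon was read as secreted luciferase (QUANTI-LUC) in the supernatant, and viability by CellTiter-Glo luminescence.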

[2] = tested on: SDH-A (succinate dehydrogenase-A); assay: Mitochondria toxicity assay with PC3 cells, in-cell ELISA SDH-A; details: 5 days treatment
Outline: as §1

SMILES: [N-]=[N+]=N[C@]1(CO)O[C@@H](n2cnc3c(=O)[nH]c(N)nc32)C[C@@H]1O [Compound 108, 2-amino-9-((2R,4S,5R)-5-azido-4-hydroxy-5-(hydroxymethyl)tetrahydro-furan-2-yl)-1,9-dihydro-6H-purin-6-one]
- IC50 [1]: 1 to 10 µM
- IC50 (PC3 cells): 1 to 10 µM
- IC50 (THP1-Dual KO-TREX1 cells): 0.25 to 1 µM
- IC50 [2]: 10 to 50 µM

SMILES: C=C[C@]1(CO)O[C@@H](n2cnc3c(N)nc(F)nc32)C[C@@H]1O [Compound 109, (2R,3S,5R)-5-(6-amino-2-fluoro-9H-purin-9-yl)-2-(hydroxymethyl)-2-vinyltetrahydrofuran-3-ol]
- IC50 [1]: 1 to 10 µM
- IC50 (PC3 cells): 1 to 10 µM
- IC50 (THP1-Dual KO-TREX1 cells): > 1 µM
- IC50 [2]: 1 to 10 µM

SMILES: C=C[C@]1(CO)O[C@@H](n2cc(F)c(N)nc2=O)[C@@H](O)[C@@H]1O [Compound 75, 4-amino-1-((2R,3S,4S,5R)-3,4-dihydroxy-5-(hydroxymethyl)-5-vinyltetrahydrofuran-2-yl)-5-fluoropyrimidin-2(1H)-one]
- IC50 [1]: > 100 µM
- IC50 (PC3 cells): > 100 µM
- IC50 (THP1-Dual KO-TREX1 cells): > 1 µM
- IC50 [2]: > 100 µM

SMILES: Nc1ccn([C@H]2C[C@H](O)[C@](CO)(C(F)F)O2)c(=O)n1 [Compound 110, 4-amino-1-((2R,4S,5R)-5-(difluoromethyl)-4-hydroxy-5-(hydroxymethyl)-tetrahydrofuran-2-yl)pyrimidin-2(1H)-one]
- IC50 [1]: > 100 µM
- IC50 (PC3 cells): > 100 µM
- IC50 (THP1-Dual KO-TREX1 cells): > 1 µM
- IC50 [2]: > 100 µM

SMILES: Cc1cn([C@H]2C[C@H](F)[C@](CO)(CCl)O2)c(=O)[nH]c1=O [Compound 7, 1-((2R,4S,5R)-5-(chloromethyl)-4-fluoro-5-(hydroxymethyl)tetrahydrofuran-2-yl)-5-methylpyrimidine-2,4(1H,3H)-dione]
- IC50 [1]: > 100 µM
- IC50 (PC3 cells): > 100 µM
- IC50 (THP1-Dual KO-TREX1 cells): > 1 µM
- IC50 [2]: > 100 µM

SMILES: C#C[C@]1(CO)O[C@@H](n2cnc3c(N)nc(Cl)nc32)[C@@H](F)[C@@H]1O [Compound 5, (2R,3R,4S,5R)-5-(6-amino-2-chloro-9H-purin-9-yl)-2-ethynyl-4-fluoro-2-(hydroxymethyl)tetrahydrofuran-3-ol]
- IC50 [1]: 10 to 50 µM
- IC50 (PC3 cells): > 100 µM
- IC50 (THP1-Dual KO-TREX1 cells): > 1 µM
- IC50 [2]: > 100 µM

SMILES: Nc1nc(=O)n([C@H]2C[C@H](O)[C@](CO)(C3CC3)O2)cc1F [Compound 120, 4-amino-1-[(2R,4S,5R)-5-cyclopropyl-4-hydroxy-5-(hydroxymethyl)oxolan-2-yl]-5-fluoropyrimidin-2-one]
- IC50 [1]: > 100 µM
- IC50 (PC3 cells): > 100 µM
- IC50 (THP1-Dual KO-TREX1 cells): > 1 µM
- IC50 [2]: > 100 µM

SMILES: CC[C@]1(CO)O[C@@H](n2cc(F)c(N)nc2=O)C[C@@H]1O [Compound 82, 4-amino-1-((2R,4S,5R)-5-ethyl-4-hydroxy-5-(hydroxymethyl)-tetrahydrofuran-2-yl)-5-fluoropyrimidin-2(1H)-one]
- IC50 [1]: > 100 µM
- IC50 (PC3 cells): > 100 µM
- IC50 (THP1-Dual KO-TREX1 cells): > 1 µM
- IC50 [2]: > 100 µM

SMILES: Cc1cn([C@@H]2O[C@@](CO)(CCl)[C@@H](O)[C@@H]2F)c(=O)[nH]c1=O [Compound 176]
- IC50 [1]: > 100 µM
- IC50 (PC3 cells): > 100 µM
- IC50 (THP1-Dual KO-TREX1 cells): > 1 µM
- IC50 [2]: > 100 µM

SMILES: O=c1[nH]c(=O)n([C@@H]2O[C@@](CO)(CCO)[C@@H](O)[C@@H]2F)cc1F [Compound 179, 5-fluoro-1-((2R,3S,4R,5R)-3-fluoro-4-hydroxy-5-(2-hydroxyethyl)-5-(hydroxymethyl)tetrahydrofuran-2-yl) pyrimidine-2,4(1H,3H)-dione]
- IC50 [1]: > 100 µM
- IC50 (PC3 cells): > 100 µM
- IC50 (THP1-Dual KO-TREX1 cells): > 1 µM
- IC50 [2]: > 100 µM

SMILES: Nc1ccn([C@@H]2O[C@@](CO)(C3CC3)[C@@H](O)[C@@H]2F)c(=O)n1 [Compound 121, 4-amino-1-[(2R,3S,4R,5R)-5-cyclopropyl-3-fluoro-4-hydroxy-5-(hydroxymethyl)oxolan-2-yl] pyrimidin-2-one]
- IC50 [1]: > 100 µM
- IC50 (PC3 cells): > 100 µM
- IC50 (THP1-Dual KO-TREX1 cells): > 1 µM
- IC50 [2]: > 100 µM

SMILES: C#C[C@]1(CO)O[C@@H](c2ccc3c(N)ncnn23)C[C@@H]1O [Compound 37, (2R,3S,5R)-5-(4-aminopyrrolo[2,1-f][1,2,4]triazin-7-yl)-2-ethyny1-2-(hydroxymethyl)tetrahydro-furan-3-ol]
- IC50 [1]: 1 to 10 µM
- IC50 (PC3 cells): 10 to 50 µM
- IC50 (THP1-Dual KO-TREX1 cells): > 1 µM
- IC50 [2]: 1 to 10 µM

SMILES: C=C[C@]1(CO)O[C@@H](n2ccc(N)nc2=O)[C@@H](F)[C@@H]1O [Compound 47, 4-amino-1-((2R,3S,4R,5R)-3-fluoro-4-hydroxy-5-(hydroxymethyl)-5-vinyltetrahydrofuran-2-yl)pyrimidin-2(1H)-one]
- IC50 [1]: 1 to 10 µM
- IC50 (PC3 cells): 1 to 10 µM
- IC50 (THP1-Dual KO-TREX1 cells): > 1 µM
- IC50 [2]: 1 to 10 µM

SMILES: Nc1nc(=O)n([C@H]2C[C@H](O)[C@](CO)(C(F)(F)F)O2)cc1F [Compound 66, 4-amino-5-fluoro-1-((2R,4S,5R)-4-hydroxy-5-(hydroxymethyl)-5-(trifluoromethyl)tetrahydrofuran-2-yl)pyrimidin-2(1H)-one]
- IC50 [1]: > 100 µM
- IC50 (PC3 cells): > 100 µM
- IC50 (THP1-Dual KO-TREX1 cells): > 1 µM
- IC50 [2]: > 100 µM

SMILES: Nc1ccn([C@@H]2O[C@@](CO)(CCl)[C@@H](O)C2(F)F)c(=O)n1 [Compound 119, 4-amino-1-((2R,4R,5R)-5-(chloromethyl)-3,3-difluoro-4-hydroxy-5-(hydroxymethyl)tetrahydrofuran-2-yl)pyrimidin-2(1H)-one]
- IC50 [1]: 1 to 10 µM
- IC50 (PC3 cells): 1 to 10 µM
- IC50 (THP1-Dual KO-TREX1 cells): > 1 µM
- IC50 [2]: 1 to 10 µM

SMILES: C#C[C@]1(CO)O[C@@H](n2ccc(N)nc2=O)[C@@H](F)[C@@H]1O [Compound 35, 4-amino-1-((2R,3S,4R,5R)-5-ethynyl-3-fluoro-4-hydroxy-5-(hydroxymethyl)tetrahydrofuran-2-yl)pyrimidin-2(1H)-one]
- IC50 [1]: < 1 µM
- IC50 (PC3 cells): < 1 µM
- IC50 (THP1-Dual KO-TREX1 cells): 0.25 to 1 µM
- IC50 [2]: > 100 µM

SMILES: CC[C@]1(CO)O[C@@H](n2cc(F)c(N)nc2=O)[C@@H](O)[C@@H]1O [Compound 78, 4-amino-1-((2R,3S,4S,5R)-5-ethyl-3,4-dihydroxy-5-(hydroxymethyl)tetrahydrofuran-2-yl)-5-fluoropyrimidin-2(1H)-one]
- IC50 [1]: > 100 µM
- IC50 (PC3 cells): > 100 µM
- IC50 (THP1-Dual KO-TREX1 cells): > 1 µM
- IC50 [2]: > 100 µM

SMILES: Nc1ccn([C@@H]2O[C@@](CO)(CCl)[C@@H](O)[C@@H]2O)c(=O)n1 [Compound 114, 4-amino-1-((2R,3S,4S,5R)-5-(chloromethyl)-3,4-dihydroxy-5-(hydroxymethyl)tetrahydro-furan-2-yl)pyrimidin-2(1H)-one]
- IC50 [1]: > 100 µM
- IC50 (PC3 cells): > 100 µM
- IC50 (THP1-Dual KO-TREX1 cells): > 1 µM
- IC50 [2]: > 100 µM

SMILES: C=C=C[C@]1(CO)O[C@@H](n2cnc3c(N)nc(F)nc32)C[C@@H]1O [Compound 164, (2R,3S,5R)-5-(6-amino-2-fluoropurin-9-yl)-2-(hydroxymethyl)-2-(propa-1,2-dien-1-yl) oxolan-3-ol]
- IC50 [1]: > 100 µM
- IC50 (PC3 cells): > 100 µM
- IC50 (THP1-Dual KO-TREX1 cells): > 1 µM
- IC50 [2]: > 100 µM

SMILES: Nc1ccn([C@H]2C[C@H](O)[C@](CO)(CF)O2)c(=O)n1 [Compound 45, 4-amino-1-((2R,4S,5R)-5-(fluoromethyl)-4-hydroxy-5-(hydroxymethyl)tetrahydro-furan-2-yl)pyrimidin-2(1H)-one]
- IC50 [1]: < 1 µM
- IC50 (PC3 cells): 1 to 10 µM
- IC50 (THP1-Dual KO-TREX1 cells): > 1 µM
- IC50 [2]: < 1 µM
